Results reported in US9708359B2, “Pyrrolopyrimidine nucleosides and analogs thereof” (Chimerix, Inc., priority 2015, dated 2017).
Where two headings read alike, the source gives them in different places.

Tests used:
[1] = Parallel cytotoxicity assay in MEF cells; assay type: cell-based; settings: mouse, parallel to MCMV assay
Procedure: (§1) Every antiviral assay included a parallel cytotoxicity assay with the same cells used for each virus, the same cell number, the same drug concentrations, and the same incubation times to provide the same drug exposure. To ensure that the cytotoxicity of all compounds could be compared directly, a standard neutral red uptake cytotoxicity assay for all compounds in confluent HFF cells with a 7 d incubation period was performed.

MCMV = assay: Plaque-reduction assay for MCMV; assay type: cell-based; settings: MEF
Procedure: Plaque-Reduction Assays for MCMV:
Mouse embryo fibroblast cells were prepared from mouse embryos using a procedure similar to that outlined above for HFF cells and suspended in tissue culture media as described above and seeded into plates and incubated. The medium was aspirated and the cell monolayers were infected with MCMV. The infected cells were then incubated at 37° C. for 1 h and the plates were rocked occasionally to ensure that the media covered the entire monolayer. Compounds were serially diluted in tissue maintenance cell culture media described above and the solutions were added to the infected monolayers. Infected monolayers were incubated for 7 d and then stained with Neutral Red solution as described above. Plaques were enumerated and EC50 values were interpolated from the experimental data by standard methods.
Mouse embryo fibroblast cells were prepared from mouse embryos using a procedure similar to that outlined above for HFF cells and suspended in tissue culture media as described above and seeded into 12 well plates and incubated at 37° C. for 24 h. The medium was aspirated and the cell monolayers were infected with the Smith strain of MCMV in a final volume of 0.2 mL in each of triplicate wells. The infected cells were then incubated at 37° C. for 1 h and the plates were rocked occasionally to ensure that the media covered the entire monolayer. […]

HHV-6B = assay: organism not typed; assay type: cell-based; settings: MOLT-3 cells
mouse norovirus = assay: Mouse Norovirus (MNV) assay in RAW cells
[2] = Parallel cytotoxicity assay in A549 cells; assay type: cell-based; settings: human, parallel to AdV assay
Procedure: as §1
The primary screen was a cytopathic effect (CPE) reduction assay. Briefly, cultures of cells were infected with virus in the presence of test compounds and incubated for 4-7 days (depending on the specific virus/cells). […] Therefore, antiviral effect, or cytoprotection, was observed when compounds prevent virus replication. […] Cytoprotection and compound cytotoxicity were assessed by MTS dye reduction. The percent reduction in viral CPE (antiviral activity) and percent cell viability (cytotoxicity) were determined and reported.
The primary screen was a cytopathic effect (CPE) reduction assay. […] Cytoprotection and compound cytotoxicity were assessed by MTS (CellTiter®96 Reagent, Promega, Madison Wis.) dye reduction. The percent reduction in viral CPE (antiviral activity) and percent cell viability (cytotoxicity) were determined and reported.

HSV-2 = assay: Plaque-reduction assay for HSV-2; assay type: cell-based, herpes simplex virus 2; settings: Human alphaherpesvirus 2; HSV-2, HFF cells
Procedure: Plaque-Reduction Assays for HSV-1, HSV-2, VZV and HCMV:
Monolayers of cells were prepared in six-well plates and incubated at to allow the cells to reach confluency. Media was then aspirated from the wells and of virus was added to each of three wells to yield 20-30 plaques in each well. The virus was allowed to adsorb to the cells for 1 h and the plates were rocked gently every 15 min to redistribute the media. Compounds were diluted in maintenance cell culture media consisting of MEM with Earl's salts supplemented with 2% FBS, L-glutamine, penicillin, and gentamycin. Solutions were added to duplicate wells and the plates were incubated for various times, depending on the virus used. The plaque-reduction assay with HSV-1 strain F was performed in a similar manner but with Vero cells infected one day after plating. For HSV-1 and -2, the monolayers were stained with 1% crystal violet in 20% methanol and the unbound dye removed by washing with dH2O. For assays with HCMV and VZV, the cell monolayer was stained with 1% Neutral Red solution for 4 h then the stain was aspirated and the cells were washed with PBS. For all assays, plaques were enumerated using a stereomicroscope and the concentration of compound that reduced plaque formation by 50% (EC50) was interpolated from the experimental data. […]

For `Cc1nc(N)c2c(C(N)=O)cn([C@@H]3O[C@H](CO)[C@@H](O)[C@H]3O)c2n1` [Compound 1, 4-amino-7-((2R,3R,4S,5R)-3,4-dihydroxy-5-(hydroxymethyl)tetrahydrofuran-2-yl)-2-methyl-7H-pyrrolo[2,3-d]pyrimidine-5-carboxamide], the CC50 (Vero76; African green monkey) was greater than 100 µM, the CC50 (Vero76; Vero76 cells, parallel to DENV-2 assay) was greater than 100 µM and the CC50 (Vero76; Vero76 cells, parallel to ENTV-71 assay) was greater than 100 µM. The CC50 (Vero76; Vero76 cells, parallel to POV-3 assay) was greater than 100 µM, the CC50 (Vero76; Vero76 cells, parallel to WNV assay) was greater than 100 µM and the CC50 [1] was greater than 100 µM. The EC50 (MCMV) was greater than 100 µM, the EC50 (HHV-6B) was 39.7 µM and the EC50 (mouse norovirus; Norovirus, in Mus musculus, read-out: EC50 value against mouse norovirus, in vitro, unit inferred) was roughly 2.1 µM. For the same compound, the EC50 (mouse norovirus; Norovirus, in Mus musculus, read-out: MNV Mean EC50, RAW cells) was 2 µM, the EC50 (mouse norovirus; murine norovirus, Table 7) was 1.7 to 3.6 µM and the CC50 [2] was greater than 100 µM. For the same compound, the EC50 (HSV-2) was greater than 60 µM.
